Experimental data taken from patent publication US20150094264A1, “USE OF OBESTATIN FOR MUSCLE REGENERATION” (UNIVERSIDADE DE SANTIAGO DE COMPOSTELA, priority 2012, published 2015).

Assays:
[1] = tested on: L6E9 cells (rat myoblasts); test: Expression of myogenic markers myogenin and MHC in L6E9 cells in differentiation medium, immunoblot; format: cell-based; conditions: DM, six days
Excerpt: FIG. 3. Effect of obestatin on the expression of the myogenic markers myogenin and MHC in L6E9 myoblasts. Effect of the stimulation with different doses of obestatin (0.01-100) on the expression of the myogenic markers myogenin and myosin (MHC) 6 days after the induction of the differentiation by the use of differentiation medium (DM: DMEN+2% FBS). The protein expression levels refer to the levels of myoblasts in growth medium (GM: DMEN+10% FBS), non-differentiated. The data are represented as % with respect to the cell expression in GM (mean±standard error of 6 independent experiments). The evaluation of the degree of expression was performed by immunoblot by the use of the ImageJ64 program (*, p<0.05).
(§1) The studies were performed based on the use of L6E9 rat myoblasts which were maintained in growth medium (GM) formed by DMEM (Dulbecco's Modified Eagle Medium) supplemented with 10% fetal bovine serum (FBS), 100 U/mL penicillin, and 100 U/mL streptomycin. For the differentiation, the cells were cultured at 80-100% of confluence in GM and it was replaced for differentiation medium (DM) formed by DMEM supplemented with 2% FBS, 100 U/mL penicillin, and 100 U/mL streptomycin during 6 days.
(§2) The tissue or cell samples were directly lysed in RIPA buffer [Tris-HCl (pH 7.2), 50 mM; NaCl, 150 mM; EDTA, 1 mM; NP-40, 1% (v/v); Sodium deoxycholate, 0.25% (w/v); protease inhibitors (Sigma); phosphatise inhibitors (Sigma)]. The lysates were clarified by centrifugation (14,000×g during 15 min at 4° C.) and the protein concentration was quantified using QuantiPro™ BCA assay kit (Sigma). For immunoblot, equal amounts of protein were loaded which were fractionated in SOS-PAGE gels and transferred to nitrocellulose membranes. The immunoreactive bands were detected by chemiluminescence (Pierce ECL Western Blotting Substrate; Thermo Scientific, Ill., USA).
The L6E9 cells were cultured in DM complemented with different concentrations of obestatin in a range of 0.01-100 nM during six days.

Akt = test: Activation of Akt [pAkt(S473)] by obestatin in L6E9 myoblasts, immunoblot; format: cell-based, rat
Method: (§3) FIG. 1. Activation of regulatory enzymes of mitogenesis and myogenesis by obestatin in L6E9 myoblasts and myotubes. Effect of obestatin on activity of regulatory enzymes of the mitogenic capacity (ERK 1/2), metabolic capacity (Akt and AMPK) and myogenic capacity (Akt and p38). Based on a dose-response study, the saturating dose for the maximum enzymatic activation is established for a concentration of 5 nM. […] Inactivation of AMPK is described in both cell models. The activation profile discovers bimodal characteristics for the action of obestatin: 1.—mitogenic activation in myoblasts; and, 2.—myogenic activation. The immunoblots are representative of 6 independent assays.
as §1, §2
To define the mitogenic and myogenic effect of obestatin, the activation capacity was studied of intracellular targets regulating proliferation (ERK1/2) and/or differentiation (p38 and Akt). […]

[2] = tested on: damaged tibialis anterior of mouse; test: Blood vessels (isolectin positive) per myofiber in damaged tibialis anterior of mouse; format: in vivo, Swiss mice; conditions: 300 nmol/kg/24 h; 10 days after induction of muscle damage
Method: FIG. 13. Quantification of the blood vessels per myofiber in the tibialis anterior 10 days after the induction of muscle damage and exogenous treatment of obestatin (300 nmol/kg/24 h) or vehicle (PBS). Quantification of the number of blood vessels (immunofluorescence: positivity to isolectin) per myofiber (mean±standard error; *, p<0.005) of sections of the tibialis anterior treated with obestatin (300 nmol/kg/24 h) or PBS (control) 10 days after inducing the damage.
For the tissue immunofluorescence analysis, frozen sections were obtained which were fixed using a buffered solution of PBS-paraformaldehyde during 15 min, washed, permeabilized and blocked with PBT during 30 min, and later incubated with the corresponding primary antibody (anti-eMHC, anti-laminin antibody) diluted in PBT (1:50) during 12 h at 4° C. After three washes with PBS, the tissue sections were incubated with secondary antibody in PBT (1:1000) during 45 min at 37° C. […] The digital images of the cell culture were acquired with a Leica TCS-SP2 confocal microscope.
The mice (30 g; n=50) were maintained in 12 h light-darkness cycled with free access to standard diet and water. To induce the muscle damage, the tibialis anterior muscle (TA) was extracted under anaesthesia and subjected to three cycles of damage due to cold contact applying along the length of the muscle a metal bar cooled in liquid nitrogen. […]

L6E9 myotubes = test: Activation of regulatory enzymes by obestatin in L6E9 myotubes, immunoblot; format: cell-based, rat; conditions: obestatin 5 nM
Method: as §3, with “assays. […]” for “assays.”
as §2, with “For immunoblot, equal amounts of protein were loaded which were fractionated in SOS-PAGE gels and transferred to nitrocellulose membranes.” left out, “USA). […]” for “USA).”

[3] = tested on: damaged tibialis anterior of mouse; test: Creatine kinase levels in serum of mice with damaged tibialis anterior; format: in vivo, Swiss mice; conditions: 300 nmol/kg weight local; 96 h
Method: FIG. 12. Analysis of the creatine kinase levels in serum of mice wherein damage was induced in the tibialis anterior muscle and they were treated locally with obestatin or vehicle (PBS) during 96 h. The creatine kinase levels are expressed as IU/L (International units/litre for the three study groups: control without damage, damage control (PBS) and treatment with obestatin (n=10 per group; mean±standard error; *, #, p<0.005).
The mice (30 g; n=50) were maintained in 12 h light-darkness cycled with free access to standard diet and water. To induce the muscle damage, the tibialis anterior muscle (TA) was extracted under anaesthesia and subjected to three cycles of damage due to cold contact applying along the length of the muscle a metal bar cooled in liquid nitrogen. The damaged muscles were treated locally with obestatin injection (300 nmol/kg weight) or the corresponding vehicle (PBS; control) during the times indicated in 24 h intervals. The animals were assigned to one of the five experimental groups (n=10/group): 1) control group (saline); 2) obestatin group 48 h (obestatin 300 nmol/kg weight/24 h); 3) obestatin group 96 h (obestatin 300 nmol/kg weight/24 h); 4) obestatin group 168 h (obestatin 300 nmol/kg weight/24 h); and, obestatin group 240 h (obestatin 300 nmol/kg weight/24 h). […]

## obestatin
[1]; 5 nM obestatin
  increase of MHC expression in relation to the control cells: −1.6
  increase of myogenin expression in relation to the control cells: −1.7
[1]; range 0.01-100 nM
  obestatin concentration of maximum effect on myogenin and MHC expression: 5 nM
Akt
  obestatin concentration at which activation of Akt [pAkt(S473)] was observed: 0.1 nM
Akt; dose-response
  obestatin concentration at which pAkt(S473) phosphorylation levels reached saturable values: 5 nM
Akt; obestatin 5 nM
  time post-stimulation of maximum pAkt(S473) levels: 10 min
[2]
  capillary density (isolectin-positive blood vessels per myofiber) in relation to vehicle (PBS): significant increase
L6E9 myotubes
  activation dynamics of Akt, p38, ERK1/2 and AMPKa compared with myoblasts: similar
[3]
  creatine kinase serum levels in relation to muscle damage controls (PBS): significant reduction
